Our source for the IC50 values is patent US12358915B2, “METTL3 inhibitory compounds” (STORM THERAPEUTICS LTD., priority 2019, dated 2025).

Where two headings read alike, the source gives them in different places.

One assay concerns MOLM-13 cells. Briefly: MOLM13 CTG - analysis of cell proliferation (Cell Titre Glo). The assay is classed as cell-based. The following applies: Homo sapiens, geometric mean, read-out: CTG MOLM13 cells IC50 GEOMEAN.
The subject of the next assay is Caov-3 cells. In words: Caov3 CTG assay - proliferation assay. The assay is classed as cell-based. As to conditions: Homo sapiens, 120 hours treatment, 30 μM top concentration, CellTiter-Glo, geometric mean, read-out: CTG Caov3 cells IC50 GEOMEAN. On the technique in general: In ATP-based viability assays light output follows the ATP content of the culture.
The next assay has as its target T1, METTL3/14 (Homo sapiens, UniProt Q86U44).
T1 construct: The enzyme used was full-length his-tagged METTL3; His; made in house
In words: METTL3/14 methyltransferase assay (METTL3_14 RFMS, RapidFire mass spectrometry).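 Also: recombinant His-tagged METTL3 with FLAG-tagged METTL14 from baculovirus, SAH product quantified by mass spectrometry against isotope-labelled internal standards, 60 min at room temperature, scaled between no-RNA and DMSO-only wells.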 The assay is classed as biochemical. The following applies: read-out: METTL3_14 RFMS IC50.

The mark [1] stands for this setting: 5 nM METTL3/14, 0.2 μM RNA substrate, 0.5 μM SAM, lower limit of the assay IC50=5 nM, Compounds 266-351.

T1 sequence (Q86U44 whole entry): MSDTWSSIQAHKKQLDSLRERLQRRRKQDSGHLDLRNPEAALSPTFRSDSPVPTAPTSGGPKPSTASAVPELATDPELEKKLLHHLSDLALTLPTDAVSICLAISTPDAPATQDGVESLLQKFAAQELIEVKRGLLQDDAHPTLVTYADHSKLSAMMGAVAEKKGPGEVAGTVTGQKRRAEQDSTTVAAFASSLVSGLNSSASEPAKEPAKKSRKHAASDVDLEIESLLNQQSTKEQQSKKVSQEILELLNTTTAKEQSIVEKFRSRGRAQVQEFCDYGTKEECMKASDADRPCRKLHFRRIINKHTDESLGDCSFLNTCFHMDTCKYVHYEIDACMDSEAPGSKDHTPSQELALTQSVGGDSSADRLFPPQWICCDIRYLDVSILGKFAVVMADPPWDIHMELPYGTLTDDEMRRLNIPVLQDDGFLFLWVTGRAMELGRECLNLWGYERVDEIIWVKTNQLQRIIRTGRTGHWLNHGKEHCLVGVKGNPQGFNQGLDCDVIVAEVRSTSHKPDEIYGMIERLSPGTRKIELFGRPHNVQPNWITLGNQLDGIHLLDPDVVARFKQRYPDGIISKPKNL
T1 sequence (Q9HCE5 whole entry partner): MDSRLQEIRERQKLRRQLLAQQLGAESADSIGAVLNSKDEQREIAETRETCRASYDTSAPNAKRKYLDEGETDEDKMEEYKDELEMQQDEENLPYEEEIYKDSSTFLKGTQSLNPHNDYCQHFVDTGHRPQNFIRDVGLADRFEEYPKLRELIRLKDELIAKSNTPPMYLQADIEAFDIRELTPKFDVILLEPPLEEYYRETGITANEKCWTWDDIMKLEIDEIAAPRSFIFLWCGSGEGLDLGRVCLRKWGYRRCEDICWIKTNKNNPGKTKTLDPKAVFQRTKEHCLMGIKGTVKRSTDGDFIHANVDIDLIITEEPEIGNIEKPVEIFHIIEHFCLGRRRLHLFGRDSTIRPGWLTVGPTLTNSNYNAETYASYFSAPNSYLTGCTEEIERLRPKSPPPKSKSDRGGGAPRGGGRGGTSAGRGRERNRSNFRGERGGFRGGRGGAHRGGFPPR
Procedure for Caov-3 cells: Upon treatment, Coav-3 cells were incubated for 10 min at RT with the CellTiter-Glo reagent (G7571, Promega). Measurement of the luminescence signal was performed on a microplate reader (Ensight, PerkinElmer).
Procedure for MOLM-13 cells: MOLM-13 or MOLM-14 cells were plated, in suspension, in 24 well tissue culture plates at final concentration of 200,000/ml, with or without 50 ng/ml IFNγ. […] Cells were incubated for 4 days at 37° C. at which point 600 μl of cell suspension was removed for Mass spectrometry analysis of m6A. 600 μl of fresh media containing the appropriate concentration of METTL3 inhibitor/IFNγ was added to remaining cell suspensions. Cells where then cultured for a further 7 days, cell suspension was sampled for analysis of proliferation and Cell surface markers periodically.
At regular time points (4, 5, 6 &7) days cells were mixed to maintain a homogenous cell suspension. 25 μl of this cell suspension was removed and added to a white 384 well plate, 25 μl of Cell Titre Glo reagent (Promega) was added, and incubated for 10 mins at room temperature before measurement of luminescence intensity, as per the manufacturers instructions.

In general, IC50 refers to the concentration that inhibits the measured activity by half. For the compound `O=C(NCc1cn2cc(CNCC34CC(F)(C3)C4)ccc2n1)c1cc(=O)n2ccccc2n1` [Compound 276, N-[[6-[[(3-fluoro-1-bicyclo[1.1.1]pentanyl)methylamino]methyl]imidazo[1,2-a]pyridin-2-yl]methyl]-4-oxo-pyrido[1,2-a]pyrimidine-2-carboxamide], the IC50 in the assay on MOLM-13 cells came out at 0.657 µM; with Caov-3 cells it was 248 nM; at METTL3/14 (setting [1]) it was 6.1 nM.

Regarding `O=C(NCc1cn2cc(CNCC3CCC3)ccc2n1)c1cc(=O)n2ccccc2n1` [Example 212, N-[[6-[(cyclobutylmethylamino)methyl]imidazo[1,2-a]pyridin-2-yl]methyl]-4-oxo-pyrido[1,2-a]pyrimidine-2-carboxamide], the IC50 came to 1.82 µM in the assay with MOLM-13 cells; 320 nM in the assay on Caov-3 cells; 6.25 nM at METTL3/14 (5 nM METTL3/14, 0.2 μM RNA substrate, 0.5 μM SAM, lower limit of the assay IC50=5 nM, Compounds 63-265).

For `COc1cc(-c2cn(Cc3cn4cc(CNCC5(O)CCC5)ccc4n3)nn2)c2cn[nH]c2c1` [Example 269, 1-[[[2-[[4-(6-methoxy-1H-indazol-4-yl)triazol-1-yl]methyl]imidazo[1,2-a]pyridin-6-yl]methylamino]methyl]cyclobutanol], the IC50 in the assay with MOLM-13 cells turned out to be 1.39 µM; with Caov-3 cells, 692 nM; at METTL3/14 (setting [1]), 8.05 nM.

On to `OC1(CNCc2ccc3nc(Cn4cc(-c5cc(Br)cc6[nH]ncc56)nn4)cn3c2)CCCCC1` [Example 294, 1-[[[2-[[4-(6-bromo-1H-indazol-4-yl)triazol-1-yl]methyl]imidazo[1,2-a]pyridin-6-yl]methylamino]methyl]cyclohexanol], for which the values for the IC50 with MOLM-13 cells and on METTL3/14 (setting [1]) were 0.998 µM and 5.8 nM, respectively.

With `Brc1cc(-c2cn(Cc3cn4cc(CNCC5CCC5)ccc4n3)nn2)c2cn[nH]c2c1` [Example 296, 1-[2-[[4-(6-bromo-1H-indazol-4-yl)triazol-1-yl]methyl]imidazo[1,2-a]pyridin-6-yl]-N-(cyclobutylmethyl)methanamine], the half-maximal inhibitory concentration (IC50) with MOLM-13 cells was 0.362 µM; at METTL3/14 it was ≤ 4.44 nM.

`O=C(O)c1cc(-c2cn(Cc3cn4cc(CNCC5CCC5)ccc4n3)nn2)c2cn[nH]c2c1` [Example 297, 4-[1-[[6-[(cyclobutylmethylamino)methyl]imidazo[1,2-a]pyridin-2-yl]methyl]triazol-4-yl]-1H-indazole-6-carboxylic acid]: the IC50 with MOLM-13 cells was ≥ 30 µM; on METTL3/14 (setting [1]), 737 nM.

As for `NC(=O)c1cc(-c2cn(Cc3cn4cc(CNCC5CCC5)ccc4n3)nn2)c2cn[nH]c2c1` [Example 298, 4-[1-[[6-[(cyclobutylmethylamino)methyl]imidazo[1,2-a]pyridin-2-yl]methyl]triazol-4-yl]-1H-indazole-6-carboxamide], the IC50 in the assay with MOLM-13 cells is ≥ 30 µM; at METTL3/14 (setting [1]) it was 42.1 nM.

As to `CN(C)C(=O)c1cc(-c2cn(Cc3cn4cc(CNCC5CCC5)ccc4n3)nn2)c2cn[nH]c2c1` [Example 299, 4-[1-[[6-[(cyclobutylmethylamino)methyl]imidazo[1,2-a]pyridin-2-yl]methyl]triazol-4-yl]-N,N-dimethyl-1H-indazole-6-carboxamide], the IC50 is ≥ 30 µM with MOLM-13 cells and 112 nM on METTL3/14 (setting [1]).

On to `O=C(c1cc(-c2cn(Cc3cn4cc(CNCC5CCC5)ccc4n3)nn2)c2cn[nH]c2c1)N1CCOCC1` [Example 300, [4-[1-[[6-[(cyclobutylmethylamino)methyl]imidazo[1,2-a]pyridin-2-yl]methyl]triazol-4-yl]-1H-indazol-6-yl]-morpholino-methanone], for which the values for the IC50 in the assay on MOLM-13 cells and at METTL3/14 (setting [1]) were ≥ 30 µM and 511 nM, respectively.

Consider `OC1(CNCc2ccc3nc(Cn4cc(-c5cc(Cl)cc6[nH]ncc56)nn4)cn3c2)CCC1` [Example 303, 1-[[[2-[[4-(6-chloro-1H-indazol-4-yl)triazol-1-yl]methyl]imidazo[1,2-a]pyridin-6-yl]methylamino]methyl]cyclobutanol], for which the IC50 in the assay with MOLM-13 cells turned out to be 1.44 µM; at METTL3/14 (setting [1]), 5.92 nM.

For `Fc1ccc(-c2cn(Cc3cn4cc(CNCC5CCC5)ccc4n3)nn2)c2cn[nH]c12` [Example 305, N-(cyclobutylmethyl)-1-[2-[[4-(7-fluoro-1H-indazol-4-yl)triazol-1-yl]methyl]imidazo[1,2-a]pyridin-6-yl]methanamine], the results for the half-inhibitory concentration (IC50) in the assay on MOLM-13 cells and at METTL3/14 (setting [1]) were 1.83 µM and 6.01 nM, respectively.

Take `OC1(CNCc2ccc3nc(Cn4cc(-c5ccc(F)c6[nH]ncc56)nn4)cn3c2)CCCCC1` [Example 306, 1-[[[2-[[4-(7-fluoro-1H-indazol-4-yl)triazol-1-yl]methyl]imidazo[1,2-a]pyridin-6-yl]methylamino]methyl]cyclohexanol]: the IC50 in the assay on MOLM-13 cells worked out at 3.93 µM; on METTL3/14 (setting [1]), 9.46 nM.

Regarding `OC1(CNCc2ccc3nc(Cn4cc(-c5ccc(F)c6[nH]ncc56)nn4)cn3c2)CCC1` [Example 308, 1-[[[2-[[4-(7-fluoro-1H-indazol-4-yl)triazol-1-yl]methyl]imidazo[1,2-a]pyridin-6-yl]methylamino]methyl]cyclobutanol], the IC50 with MOLM-13 cells turned out to be 5.61 µM; on METTL3/14 (setting [1]), 11.4 nM.

Turning to `c1cc2nc(Cn3cc(-c4cc(N5CCOCC5)cc5[nH]ncc45)nn3)cn2cc1CNCC1CCC1` [Example 311, N-(cyclobutylmethyl)-1-[2-[[4-(6-morpholino-1H-indazol-4-yl)triazol-1-yl]methyl]imidazo[1,2-a]pyridin-6-yl]methanamine], the IC50 worked out at 3.68 µM in the assay with MOLM-13 cells and 19 nM on METTL3/14 (setting [1]).

On to `O=C(NCc1cn2cc(C(Cc3ccccc3)NCC3CCC3)ccc2n1)c1cc(=O)n2ccccc2n1` (stereo not shown) [Example 313, N-[[6-[1-(cyclobutylmethylamino)-2-phenyl-ethyl]imidazo[1,2-a]pyridin-2-yl]methyl]-4-oxo-pyrido[1,2-a]pyrimidine-2-carboxamide], for which the IC50 turned out to be 11.3 µM with MOLM-13 cells and 37.6 nM at METTL3/14 (setting [1]).

Consider `Clc1ccc(-c2cn(Cc3cn4cc(CNCC5CCC5)ccc4n3)nn2)c2cn[nH]c12` [Example 315, 1-[2-[[4-(7-chloro-1H-indazol-4-yl)triazol-1-yl]methyl]imidazo[1,2-a]pyridin-6-yl]-N-(cyclobutylmethyl)methanamine], for which the IC50 in the assay on MOLM-13 cells stood at 8.36 µM; on METTL3/14 (setting [1]), 19.3 nM.

As for `Fc1cc(-c2cn(Cc3cn4cc(CNCC5CCC5)ccc4n3)nn2)c2cn[nH]c2c1` [Example 318, N-(cyclobutylmethyl)-1-[2-[[4-(6-fluoro-1H-indazol-4-yl)triazol-1-yl]methyl]imidazo[1,2-a]pyridin-6-yl]methanamine], the IC50 is 1.18 µM in the assay with MOLM-13 cells and 5.67 nM on METTL3/14 (setting [1]).

Turning to `OC1(CNCc2ccc3nc(Cn4cc(-c5cc(F)cc6[nH]ncc56)nn4)cn3c2)CCC1` [Example 319, 1-[[[2-[[4-(6-fluoro-1H-indazol-4-yl)triazol-1-yl]methyl]imidazo[1,2-a]pyridin-6-yl]methylamino]methyl]cyclobutanol], the IC50 with MOLM-13 cells was determined as 4.38 µM; at METTL3/14 (setting [1]) it was 7.84 nM.

For the compound `Fc1cc(-c2cn(Cc3cn4cc(CNCC5CCCCC5)ccc4n3)nn2)c2cn[nH]c2c1` [Example 320, N-(cyclohexylmethyl)-1-[2-[[4-(6-fluoro-1H-indazol-4-yl)triazol-1-yl]methyl]imidazo[1,2-a]pyridin-6-yl]methanamine], the IC50 was found to be 2.76 µM with MOLM-13 cells and 6.16 nM on METTL3/14 (setting [1]).

In the case of `O=C(NCc1cn2cc(CNCC3CCC3)ccc2n1)c1cccc2[nH]ncc12` [Example 322, N-[[6-[(cyclobutylmethylamino)methyl]imidazo[1,2-a]pyridin-2-yl]methyl]-1H-indazole-4-carboxamide], the figures for the IC50 in the assay with MOLM-13 cells and at METTL3/14 (setting [1]) were 11 µM and 32.5 nM, respectively.

As for `c1cc2[nH]ncc2c(-c2cn(Cc3cn4cc(CNCC5CCC5)ccc4n3)nn2)n1` [Example 324, N-(cyclobutylmethyl)-1-[2-[[4-(1H-pyrazolo[4,3-c]pyridin-4-yl)triazol-1-yl]methyl]imidazo[1,2-a]pyridin-6-yl]methanamine], the concentration for half-maximal inhibition (IC50) in the assay on MOLM-13 cells amounted to 3.28 µM; at METTL3/14 (setting [1]), 8.86 nM.

For the compound `c1cc2[nH]ncc2c(-c2cn(Cc3cn4cc(CNCC5CCCCC5)ccc4n3)nn2)n1` [Example 325, N-(cyclohexylmethyl)-1-[2-[[4-(1H-pyrazolo[4,3-c]pyridin-4-yl)triazol-1-yl]methyl]imidazo[1,2-a]pyridin-6-yl]methanamine], the IC50 with MOLM-13 cells was 7.5 µM; on METTL3/14 (setting [1]), 14.5 nM.

As for `OC1(CNCc2ccc3nc(Cn4cc(-c5nccc6[nH]ncc56)nn4)cn3c2)CCC1` [Example 326, 1-[[[2-[[4-(1H-pyrazolo[4,3-c]pyridin-4-yl)triazol-1-yl]methyl]imidazo[1,2-a]pyridin-6-yl]methylamino]methyl]cyclobutanol], the results for the IC50 with MOLM-13 cells and on METTL3/14 (setting [1]) were 10.7 µM and 76.6 nM, respectively.

On to `OC1(CNCc2ccc3nc(Cn4cc(-c5cccc6[nH]ncc56)nn4)cn3c2)CCCCC1` [Example 328, 1-[[[2-[[4-(1H-indazol-4-yl)triazol-1-yl]methyl]imidazo[1,2-a]pyridin-6-yl]methylamino]methyl]cyclohexanol], for which the IC50 in the assay with MOLM-13 cells was found to be 3.25 µM; at METTL3/14 (setting [1]), 8.84 nM.

For `N#CCC(NCC1CCC1)c1ccc2nc(CNC(=O)c3cc(=O)n4ccccc4n3)cn2c1` (stereo not shown) [Example 330, N-[[6-[2-cyano-1-(cyclobutylmethylamino)ethyl]imidazo[1,2-a]pyridin-2-yl]methyl]-4-oxo-pyrido[1,2-a]pyrimidine-2-carboxamide], the IC50 with MOLM-13 cells was ≥ 30 µM; at METTL3/14 (setting [1]), 202 nM.

For `O=c1cc(-c2cn(Cc3cn4cc(CNCC5CCC5)ccc4n3)nn2)nc2ccccn12` [Example 342, 2-[1-[[6-[(cyclobutylmethylamino)methyl]imidazo[1,2-a]pyridin-2-yl]methyl]triazol-4-yl]pyrido[1,2-a]pyrimidin-4-one], the IC50 in the assay on MOLM-13 cells came out at 6.71 µM; on METTL3/14 (setting [1]), 18.4 nM.
